Earlier results in patent US9364479B2, “Use of a receptor-type kinase modulator for treating polycystic kidney disease” (SYMPHONY EVOLUTION, INC., priority 2010, dated 2016).

Assays:
PKD model = conditions: in vivo; cited from earlier work
bpk mice = conditions: cited from earlier work
bpk mice or PCK rat = conditions: cited from earlier work

For `CCOc1cc2ncc(C#N)c(Nc3ccc(F)c(Cl)c3)c2cc1NC(=O)/C=C/CN(C)C` [EKB-569], the “cyst formation and renal function, in words” value (PKD model) is given as “effective in reducing cyst formation and maintaining normal renal function”.

For `CC#CC(=O)Nc1ccc2ncnc(Nc3cccc(Br)c3)c2c1` [EKI-785], the “progression of PKD, in words” value (bpk mice) is listed as “effective in preventing the progression of PKD”.

For `COc1cc(Nc2c(C#N)cnc3cc(OCCCN4CCN(C)CC4)c(OC)cc23)c(Cl)cc1Cl` [SKI-606], the “renal cyst formation and biliary duct abnormalities, in words” value (bpk mice or PCK rat) is given as “ameliorated renal cyst formation and biliary duct abnormalities”.
